Source: ChEMBL document CHEMBL5346923, “Novel pyridinium cationic pleuromutilin analogues overcoming bacterial multidrug resistance” (Eur J Med Chem, 2023)
Activity calls are given as the source filed them. The rule behind the calls is not given here.

How the values were obtained:
Staphylococcus aureus [1] = experiment: Antibacterial activity against clinical isolate multi-drug resistant Staphylococcus aureus sal assessed as inhibition of bacterial growth; type: functional
Staphylococcus aureus [2] = experiment: Antibacterial activity against multi-drug resistant Staphylococcus aureus sa1 infected in ip dosed BABL/C mouse assessed as survival rate measured upto 7 days; type: functional; conditions: sa1, 168 h, time <= 7 day
Staphylococcus aureus [3] = experiment: Antibacterial activity against multi-drug resistant Staphylococcus aureus sa1 infected in BABL/C mouse assessed as reduction in bacterial load in lungs at 40 mg/kg, ip measured after 2 days; type: functional; conditions: time 2 day
Bacillus subtilis = experiment: Antibacterial activity against Bacillus subtilis ATCC 6633 assessed as inhibition of bacterial growth measured after 24 hrs by MH broth based assay; type: functional
Escherichia coli [4] = experiment: Antibacterial activity against clinical isolate Escherichia coli harbouring NDM-17 gene assessed as inhibition of bacterial growth measured after 24 hrs by MH broth based assay; type: functional
[5] = Hemolytic activity in rabbit RBC at 200 ug/ml incubated for 5 mins by absorbance based analysis; type: toxicity, cell-based, Oryctolagus cuniculus, Erythrocyte; conditions: rabbit red blood cells (erythrocytes), at 200 µg/mL, read-out: Activity
Staphylococcus aureus [6] = experiment: Antibacterial activity against multi-drug resistant Staphylococcus aureus sa1 infected in BABL/C mouse assessed as reduction in bacterial load in lungs at 20 mg/kg, ip measured after 2 days; type: functional; conditions: time 2 day
Enterococcus hirae = experiment: Antibacterial activity against clinical isolate Enterococcus hirae assessed as inhibition of bacterial growth measured after 24 hrs by MH broth based assay; type: functional
Staphylococcus aureus [7] = experiment: Antibacterial activity against 2 times of MIC treated methicillin-resistant Staphylococcus aureus […] assessed as post-antibiotic sub-MIC effect by measuring time required for increase in log10 CFU/ml of bacteria at 0.5 times of MIC incubated for 1 hr by MH broth based assay; type: functional
Escherichia coli [8] = experiment: Antibacterial activity against Escherichia coli MG1655 harbouring acrB gene assessed as inhibition of bacterial growth measured after 24 hrs by MH broth based assay; type: functional
Staphylococcus aureus [9] = experiment: Antibacterial activity against clinical isolate multi-drug resistant Staphylococcus aureus sal assessed as reduction in log10 CFU at 6 times of MIC measured after 8 hrs by time-kill assay; type: functional
[10] = Toxicity in BABL/C mouse assessed as survival rate at 631 mg/kg, po measured upto 14 days; type: organism-based; conditions: in vivo, time < 14 day
Staphylococcus aureus [11] = experiment: Antibacterial activity against clinical isolate Staphylococcus aureus harbouring erm C gene assessed as inhibition of bacterial growth measured after 24 hrs by MH broth based assay; type: functional
Staphylococcus aureus [12] = experiment: Antibacterial activity against Staphylococcus aureus ATCC 29213 assessed as inhibition of bacterial GFP expression at 1 to 4 times of MIC incubated for 1 hr by fluorescence microscopic analysis; type: functional, organism-based
Staphylococcus aureus [13] = experiment: Antibacterial activity against methicillin-resistant Staphylococcus aureus ATCC 43300 assessed as reduction in log10 CFU at 6 times of MIC measured after 8 hrs by time-kill assay; type: functional
Staphylococcus aureus [14] = experiment: Antibacterial activity against clinical isolate Staphylococcus aureus harbouring tet38 gene assessed as inhibition of bacterial growth measured after 24 hrs by MH broth based assay; type: functional
Staphylococcus aureus [15] = experiment: Antibacterial activity against clinical isolate Staphylococcus aureus harbouring blaZ gene assessed as inhibition of bacterial growth measured after 24 hrs by MH broth based assay; type: functional
Staphylococcus aureus [16] = experiment: Antibacterial activity against clinical isolate Staphylococcus aureus harbouring IsaE gene assessed as inhibition of bacterial growth measured after 24 hrs by MH broth based assay; type: functional
[17] = tested on: Staphylococcus epidermidis; experiment: Antibacterial activity against methicillin-resistant Staphylococcus epidermidis ATCC 51625 assessed as inhibition of bacterial growth measured after 24 hrs by MH broth based assay; type: functional
Staphylococcus aureus [18] = experiment: Antibacterial activity against methicillin-resistant Staphylococcus aureus assessed as resistance development by measuring fold increase in MIC measured after 24 days; type: functional; conditions: time 24 day
Proteus = experiment: Antibacterial activity against Proteus CMCC (B) 49027 assessed as inhibition of bacterial growth measured after 24 hrs by MH broth based assay; type: functional
Staphylococcus aureus [19] = experiment: Antibacterial activity against clinical isolate Staphylococcus aureus harbouring ArlS, norA and MgrA gene assessed as inhibition of bacterial growth measured after 24 hrs by MH broth based assay; type: functional
Staphylococcus aureus [20] = experiment: Antibacterial activity against clinical isolate Staphylococcus aureus harbouring IsaA, cfr and erm A gene assessed as inhibition of bacterial growth measured after 24 hrs by MH broth based assay; type: functional
Staphylococcus aureus [21] = experiment: Antibacterial activity against clinical isolate Staphylococcus aureus harbouring cfr gene assessed as inhibition of bacterial growth measured after 24 hrs by MH broth based assay; type: functional
Streptococcus parasuis = experiment: Antibacterial activity against clinical isolate Streptococcus parasuis harbouring optrA gene assessed as inhibition of bacterial growth measured after 24 hrs by MH broth based assay; type: functional
Staphylococcus aureus [22] = experiment: Antibacterial activity against clinical isolate Staphylococcus aureus harbouring cfr and erm C gene assessed as inhibition of bacterial growth measured after 24 hrs by MH broth based assay; type: functional
Staphylococcus aureus [23] = experiment: Potency index, ratio of tiamulin MIC to compound […] for antibacterial activity against clinical isolate multi-drug resistant Staphylococcus aureus sal; type: functional
Cell membrane [24] = experiment: Disruption of membrane integrity in Staphylococcus aureus ATCC 29213 assessed as induction of cell membrane perforation at 1 to 4 ug/ml incubated for 60 mins by ONPG reagent based analysis; type: subcellular; conditions: dose 1-4 µg/ml
HepG2 = experiment: Cytotoxicity against human HepG2 cells assessed as reduction in cell viability at 7.5 to 1000 ug/ml incubated for 6 hrs by CCK-8 assay; type: toxicity, cell-based; conditions: hepg2, 6 h, dose 7.5-1000 µg/ml
Staphylococcus aureus [25] = experiment: Antibacterial activity against methicillin-resistant Staphylococcus aureus […] assessed as post antibacterial effect by measuring time required for increase in log10 CFU/ml of bacteria at 4 times of MIC incubated for 1 hr by MH broth based assay; type: functional
HEK293 = experiment: Cytotoxicity against HEK293 cells assessed as reduction in cell viability at 7.5 to 1000 ug/ml incubated for 6 hrs by CCK-8 assay; type: toxicity, cell-based; conditions: human, hek293, 6 h, dose 7.5-1000 µg/ml
Staphylococcus aureus [26] = experiment: Antibacterial activity against multi-drug resistant Staphylococcus aureus sa1 infected in BABL/C mouse assessed as survival rate at 10 mg/kg, ip measured upto 7 days; type: functional; conditions: sa1, 168 h, time <= 7 day
Escherichia coli [27] = experiment: Antibacterial activity against Escherichia coli MG1655 assessed as inhibition of bacterial growth measured after 24 hrs by MH broth based assay; type: functional
Escherichia coli [28] = experiment: Antibacterial activity against Escherichia coli ATCC 25922 assessed as inhibition of bacterial growth measured after 24 hrs by MH broth based assay; type: functional
Klebsiella pneumoniae [29] = experiment: Antibacterial activity against Klebsiella pneumonia CMCC (B) 46117 assessed as inhibition of bacterial growth measured after 24 hrs by MH broth based assay; type: functional
Staphylococcus aureus [30] = experiment: Antibacterial activity against 4 times of MIC treated methicillin-resistant Staphylococcus aureus […] assessed as post-antibiotic sub-MIC effect by measuring time required for increase in log10 CFU/ml of bacteria at 0.25 to 0.5 times of MIC incubated for 1 hr by MH broth based assay; type: functional
Cell membrane [31] = experiment: Disruption of membrane integrity in Staphylococcus aureus ATCC 29213 at 1 to 6 times of MIC by DAPI/propidium iodide staining based fluorescence microscopic analysis; type: subcellular
Klebsiella pneumoniae [32] = experiment: Antibacterial activity against clinical isolate Klebsiella pneumoniae harbouring blaKpc gene assessed as inhibition of bacterial growth measured after 24 hrs by MH broth based assay; type: functional

In the case of C=C[C@]1(C)C[C@@H](OC(=O)CSc2cc[n+](CCCCCCC)cc2)[C@]2(C)[C@H](C)CC[C@]3(CCC(=O)[C@H]32)[C@@H](C)[C@@H]1O.[I-], the MIC (Staphylococcus aureus [1]) is reported as 8 µg/mL, the ED50 (Staphylococcus aureus [2]) is reported as 5.68 mg/kg and the Activity (Staphylococcus aureus [3]) is reported as 4.17 log10CFU/ml. For the same compound, the MIC (Bacillus subtilis) was 4 µg/mL, the MIC (Escherichia coli [4]) was 16 µg/mL and the hemolysis at 5 min, 200 ug/ml [5] was < 14%. It also gave an Activity (Staphylococcus aureus [6]) of 3.29 log10CFU/ml, an MIC (Enterococcus hirae) of 0.25 µg/mL and a Time (Staphylococcus aureus [7]) of ~2.7 h. For the same compound, the MIC (Escherichia coli [8]) was 0.5 µg/mL, the Activity (Staphylococcus aureus [9]) was 2 log10CFU/ml and the survival at 336 h [10] was 80%. The MIC (Staphylococcus aureus [11]) was 2 µg/mL, the Activity (Staphylococcus aureus [12]) was “Active” and the Activity (Staphylococcus aureus [13]) was 2 log10CFU/ml. The MIC (Staphylococcus aureus [14]) was 0.125 µg/mL, the MIC (Staphylococcus aureus [15]) was 0.063 µg/mL and the MIC (Staphylococcus aureus [16]) was 8 µg/mL. For the same compound, the MIC [17] was 0.063 µg/mL, the “fold change (FC)” value (Staphylococcus aureus [18]) was 8 and the MIC (Proteus) was 32 µg/mL. The MIC (Staphylococcus aureus [19]) was 0.063 µg/mL, the MIC (Staphylococcus aureus [20]) was 4 µg/mL and the MIC (Staphylococcus aureus [21]) was 8 µg/mL. For the same compound, the MIC (Streptococcus parasuis) was 16 µg/mL, the MIC (Staphylococcus aureus [22]) was 8 µg/mL and the Ratio (Staphylococcus aureus [23]) was 96. The Activity (Cell membrane [24]) was “Active”, the Activity (HepG2) was “Non-Toxic” and the Time (Staphylococcus aureus [25]) was 2.56 h. The Activity (HEK293) was “Non-Toxic”, the survival at 10 mg/kg (Staphylococcus aureus [26]) was 66% and the MIC (Escherichia coli [27]) was 32 µg/mL. For the same compound, the MIC (Escherichia coli [28]) was 32 µg/mL, the MIC (Klebsiella pneumoniae [29]) was 2 µg/mL and the Time (Staphylococcus aureus [30]) was 2.75 h. The Activity (Cell membrane [31]) was “Active” and the MIC (Klebsiella pneumoniae [32]) was 4 µg/mL.
